Measurements as given in US9365572B2, “PI3K and/or mTOR inhibitor” (XUANZHU PHARMA CO., LTD., priority 2012, dated 2016).

How the values were obtained:
[1] = target: Adenosine A3 (Homo sapiens (Human), UniProt P0DMS8); assay: Radioligand binding assay No. 200720; details: test substance 10 μM, read-out: Inhibitory rate (%), Adenosine A3
[2] = test system: Glutamate, NMDA, Agonism; assay: Radioligand binding assay No. 232810; details: test substance 10 μM; rat
[3] = test system: Thyroid Hormone; assay: Radioligand binding assay No. 285900; details: test substance 10 μM; rat
[4] = test system: A498; assay: In vitro cytological inhibitory activity (XTT); format: cell-based; details: Homo sapiens, 72 hrs
Experimental: A498: Human renal carcinoma cell line.
(§1) 1. Preparation of agents and compounds:
(§2) • 1.1 Preparation of phosphoric acid buffering solution (PBS): 8 g NaCl, 0.2 g KCl, 1.44 g Na2HPO4 and 0.24 g KH2PO4 were weighed and added to 800 mL ultrapure water. The mixture was adjusted to pH=7.4, and ultrapure water was added to the metered volume of IL. Then the autoclaving was conducted for 20 mins. • 1.2 Preparation of XTT detection working solution: 100 mg (2,3-Bis-(2-methoxy-4-nitro-5-sulfophenyl)-2H-tetrazolium-5-carboxanilide); 2,3-bis(2-methoxy-4-nitro-5-sulfophenyl)-5-[(phenylamino)carbonyl]-2H-tetrazolium hydroxide (XTT) powder was weighed, and dissolved under protection from light 300 mL of phenol red-free and serum-free RPMI1640 culture, which had been warmed up to 50° C. The resulting mixture was filtered, packaged and used immediately or in one week. The complete process was conducted under protection from light. • 1.3 Preparation of the test compound • Preparation of the stock solution of the test compound: The test compound powder was dissolved in DMSO in a concentration of 10 mM. • Preparation of the gradiently diluted solution of the test compound: 10 mM of the stock solution of the test compound was successively and gradiently diluted with DMSO by 4 folds for 10 concentrations. […]

[5] = test system: PC-3; assay: In vitro cytological inhibitory activity (XTT); format: cell-based; details: Homo sapiens, 72 hrs
Experimental: PC-3: Human prostatic carcinoma cell line;
as §1, §2

Chain of Adenosine A3 (P0DMS8 whole entry): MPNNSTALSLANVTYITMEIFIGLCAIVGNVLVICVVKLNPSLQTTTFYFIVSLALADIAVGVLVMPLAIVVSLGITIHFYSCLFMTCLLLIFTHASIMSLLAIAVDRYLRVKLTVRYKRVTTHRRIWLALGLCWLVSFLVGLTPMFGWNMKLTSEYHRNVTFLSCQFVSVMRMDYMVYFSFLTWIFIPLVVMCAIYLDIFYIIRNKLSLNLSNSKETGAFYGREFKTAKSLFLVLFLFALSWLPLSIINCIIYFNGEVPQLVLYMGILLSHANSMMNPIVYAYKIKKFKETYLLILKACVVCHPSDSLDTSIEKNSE

| Compound | inhibition at 10 µM [1] | Inhibitory rate (%), Glutamate, NMDA, Agonism [2] | Inhibitory rate (%), Thyroid Hormone [3] | IC50 [4] | IC50 [5] |
| --- | --- | --- | --- | --- | --- |
| Nc1ccc(-c2ccc3ncc4c(=O)[nH]c(=O)n(-c5cccc(C(F)(F)F)c5)c4c3n2)cn1 [Compound 5, 9-(6-aminopyridin-3-yl)-1-(3-(trifluoromethyl)phenyl)pyrimido[5,4-c][1,5]naphthyridine-2,4(1H,3H)-dione] | 11% | 29% | 9% | 83.7 nM |  |
| O=c1[nH]c(=O)n(-c2cccc(C(F)(F)F)c2)c2c1cnc1ccc(-c3cnc4[nH]ccc4c3)nc12 [Compound 30, 9-(1H-pyrrolo[2,3-b]pyridin-5-yl)-1-(3-(trifluoromethyl)phenyl)pyrimido[5,4-c][1,5]naphthyridine-2,4(1H,3H)-dione] |  |  |  |  | 25.6 nM |
